The numbers were not newly measured in patent publication US20120065140A1, “Biomarkers for the Diagnosis of Autoimmune Disease” (priority 2010, published 2012), which cites them from elsewhere.

For `CN(Cc1cnc2nc(N)nc(N)c2n1)c1ccc(C(=O)N[C@@H](CCC(=O)O)C(=O)O)cc1` [MTX, Methotrexate], under “rheumatoid arthritis”, the onset of action is listed as 4-6 weeks. For the same compound, the “patients having some response” value (rheumatoid arthritis patients) is given as 70%.
